Non-standard residues stand in square brackets, D forms with d. Residues, ends and D or L forms follow the SMILES beside them. *: point of attachment. Dansyl = CN(C)c1cccc2c(S(=O)(=O)*)cccc12; Dmt = Cc1cc(O)cc(C)c1C[C@H](N)C(=O)O; Dap = NC[C@H](N)C(=O)O
Experiments:
[1] = Body weight and heart rate during the infarction/reperfusion experiment; type: in vivo, rat
Description: Adult male […] rats (F344 strain, National Institute of Aging, maintained by Harian Sprague-Dawley Inc.), weighting between 285 and 425 gm, were used. Twenty-four rats (n=8/group) were randomly assigned to one of three groups: (1) Control group was given 0.4 ml of saline as an intra-peritoneal (IP) injection 30 minutes before the ligation of left anterior descending coronary artery, followed by same IP dose injection 5 minutes before reperfusion; (2) SS-31 group was treated with SS-31 (3 mg/kg dissolved in 0.4 ml of saline) as an IP injection 30 minutes before the ligation followed by same IP dose injection as maintenance 5 minutes before reperfusion; and (3) SS-20 group was treated with SS-20 (3 mg/kg dissolved in 0.4 ml of saline) as an IP injection 30 minutes before the ligation followed by same dose IP injection as maintenance just 5 minutes before reperfusion. Also, Sham-operated rats (n=3) were used to account for possible effects related to the surgical protocol. All procedures were performed in a blinded manner, with the groups assigned letters and their identities unknown to the operators. Likewise, the two independent investigators analyzing the data were blind to the treatment assignments.
After anesthesia with ketamine (90 mg/kg IP) and xylazine (4 mg/kg IP), a tracheotomy was performed, and the rat was intubated with polyethylene tube and ventilated (Harvard Rodent Ventilator model 683) with room air and a tidal volume of 0.65 ml/100 gm of body weight at 90 breaths per minute. Body temperature was maintained at 37° C. by using a heated operating table. The internal jugular vein was surgically exposed and a polyethylene tube was inserted for Evans blue dye solution injection. Peripheral limb electrodes were inserted subcutaneously and electrocardiogram was monitored throughout the procedure.
An ECG was recorded continuously from a standard lead II (AC AMP 700) inserted into the limbs of all rats. The ECG was printed at 25 mm/second. The cardiac arrhythmias were monitored and assessed in accordance with the Lambeth Convention. The assessment was performed in a blinded manner using the original paper recordings. A validated score was used to quantify the severity of cardiac arrhythmias. The score consisted of six types: 0, no ventricular extrasystoles (VES), ventricular tachycardia (VT) or ventricular fibrillation (VF); 1=VES; 2=one to five episodes of VT (more than four coupled VES); 3=more than five episodes of VT and/or one VF; 4=two to five episodes of VF; 5=more than five episodes of VF.
All values are expressed as mean±standard error of mean (S.E.M.). Statistical analyses were performed using SPSS version 10. Differences among groups in body weight, heart rate, arrhythmia, area at risk as a percentage of the left ventricle, and area of infarction as a percentage of the area at risk were analyzed using ANOVA. If significant differences were detected, comparisons between the control group and the 2 treatment groups were conducted using the Mann-Whitney U-test. A two-tailed p<0.05 was regarded as significant.

[2] = tested on: Caco-2 cells; assay: Confocal laser scanning microscopy of fluorescent analogs (uptake, subcellular distribution); type: cell-based, human; conditions: for subcellular distribution of fluorescence: Caco-2, CLSM
Description: The uptake of [Dmt^1]DALDA into Caco-2 cells was confirmed by confocal laser scanning microscopy (CLSM) using a fluorescent analog of [Dmt^1]DALDA (Dmt-D-Arg-Phe-dnsDap-NH2; where dnsDap=β-dansyl-1-α,β-diaminopropionic acid). Cells were grown as described above and were plated on (35 mm) glass bottom dishes (MatTek Corp., Ashland, Mass.) for 2 days. The medium was then removed and cells were incubated with 1 ml of HBSS containing 0.1 μM to 1.0 μM of the fluorescent peptide analog at 37° C. for 1 h. Cells were then washed three times with ice-cold HBSS and covered with 200 μl of PBS, and microscopy was performed within 10 min at room temperature using a Nikon confocal laser scanning microscope with a C-Apochromat 63×/1.2 W corr objective. Excitation was performed at 340 nm by means of a UV laser, and emission was measured at 520 nm. For optical sectioning in z-direction, 5-10 frames with 2.0 μm were made.
To examine the subcellular distribution of [Dmt^1]DALDA, the fluorescent analog, [Dmt^1, AtnDap^4]DALDA (Dmt-D-Arg-Phe-atnDap-NH2; where atn=β-anthraniloyl-1-α,β-diamino-propionic acid), was prepared. The analog contained β-anthraniloyl-1-α,β-diaminopropionic acid in place of the lysine reside at position 4. The cells were grown as described in Example 1 and were plated on (35 mm) glass bottom dishes (MatTek Corp., Ashland, Mass.) for 2 days. The medium was then removed and cells were incubated with 1 ml of HBSS containing 0.1 μM of [Dmt^1, AtnDap^4]DALDA at 37° C. for 15 min to 1 h.
Cells were also incubated with tetramethylrhodamine methyl ester (TMRM, 25 nM), a dye for staining mitochondria, for 15 min at 37° C. Cells were then washed three times with ice-cold HBSS and covered with 200 μl of PBS, and microscopy was performed within 10 min at room temperature using a Nikon confocal laser scanning microscope with a C-Apochromat 63×/1.2 W corr objective.
For [Dmt^1, AtnDap^4]DALDA, excitation was performed at 350 nm by means of a UV laser, and emission was measured at 520 nm. For TMRM, excitation was performed at 536 nm, and emission was measured at 560 nm.

[3] = tested on: isolated mouse liver mitochondria; assay: Uptake into isolated mitochondria (fluorescence quenching, radioactivity in pellet); type: in vitro ADME
Description: (FIG. 1A) Mitochondrial uptake of SS-19 was determined using fluorescence spectrophotometry (ex/em=320/420 nm). […] Pretreatment of mitochondria with FCCP (1.5 μM) reduced quenching by <20% (black line). […] Uptake was stopped by centrifugation (16000×g) for 5 min at 4° C., and radioactivity determined in the pellet. […] Data are shown as mean±s.e.; n=3. *, P<0.05 by Student's t-test. […] Black line, TMRM; red line, SS-19.
To isolate mitochondria from mouse liver, mice were sacrificed by decapitation. The liver was removed and rapidly placed into chilled liver homogenization medium. The liver was finely minced using scissors and then homogenized by hand using a glass homogenizer.
The homogenate was centrifuged for 10 min at 1000×g at 4° C. The supernatant was aspirated and transferred to polycarbonate tubes and centrifuged again for 10 min. at 3000×g, 4° C. The resulting supernatant was removed, and the fatty lipids on the side-wall of the tube were carefully wiped off.
The pellet was resuspended in liver homogenate medium and the homogenization repeated twice. The final purified mitochondrial pellet was resuspended in medium. Protein concentration in the mitochondrial preparation was determined by the Bradford procedure.
Approximately 1.5 mg mitochondria in 400 μl buffer was incubated with [^3H][Dmt^1]DALDA for 5-30 min at 37° C. The mitochondria were then centrifuged down and the amount of radioactivity determined in the mitochondrial fraction and buffer fraction. […] Thus [Dmt^1]DALDA is concentrated in mitochondria.
Thus uptake of [Dmt^1, AtnDap^4]DALDA was not potential-dependent.
To confirm that the mitochondrial targeting was not an artifact of the fluorophore, we also examined mitochondrial uptake of [^3H][Dmt^1]DALDA. Isolated mitochondria were incubated with [^3H][Dmt^1]DALDA and radioactivity determined in the mitochondrial pellet and supernatant.
We next examined the effect of mitochondrial swelling on the accumulation of [Dmt^1, AtnDap^4]DALDA in mitochondria by using alamethicin to induce swelling and rupture of the outer membrane. […] Thus, [Dmt^1]DALDA is associated with mitochondrial membranes.

Compound	Heart Rate Baseline ([1]; Baseline)	Heart Rate Ischemia ([1]; first column)	Heart Rate Ischemia ([1]; second column)	Heart Rate Open chest ([1]; Open chest)	Heart Rate Reperfusion ([1]; first column)	Heart Rate Reperfusion ([1]; second column)	uptake of fluorescent peptide into Caco-2 cells (CLSM) ([2]; 0.1 μM, 1 h, 37° C.)	subcellular distribution of fluorescence [2]	incubation time after which uptake into Caco-2 cells was shown ([2]; 0.1 μM, 37° C.)	distribution to mitochondria (overlap with TMRM) ([2]; Caco-2, TMRM 25 nM)	reduction of uptake (fluorescence quenching) by FCCP pretreatment ([3]; FCCP 1.5 μM, mitochondria 0.35 mg/ml)	effect of alamethicin-induced mitochondrial swelling on uptake [3]	effect of alamethicin-induced mitochondrial swelling on uptake ([3]; listed as [Dmt^1, AtnDap^4]DALDA)	uptake on addition of mitochondria (fluorescence) ([3]; ex/em 320/420 nm)
N=C(N)NCCC[C@@H](NC(=O)[C@@H](N)Cc1ccccc1)C(=O)N[C@@H](Cc1ccccc1)C(=O)N[C@@H](CCCCN)C(N)=O [SS-20, Phe-D-Arg-Phe-Lys-NH2] (H-F[dR]FK-NH2; N-terminus assumed)	255 ± 5	191 ± 17	184 ± 15	211 ± 10	182 ± 16	183 ± 12	–	–	–	–	–	–	–	–
Cc1cc(O)cc(C)c1C[C@H](N)C(=O)N[C@H](CCCNC(=N)N)C(=O)N[C@@H](Cc1ccccc1)C(=O)N[C@@H](CNS(=O)(=O)c1cccc2c(N(C)C)cccc12)C(N)=O [[Dmt^1,DnsDap^4]DALDA, Dmt-D-Arg-Phe-dnsDap-NH2] (H-[Dmt][dR]F[Dap](Dansyl)-NH2; N-terminus assumed)	–	–	–	–	–	–	confirmed the uptake	diffuse throughout the cytoplasm but was completely excluded from the nucleus	–	–	–	–	–	–
Dmt-D-Arg-Phe-atnDap-NH2 [SS-19]	–	–	–	–	–	–	–	completely excluded from the nucleus	15 min	demonstrated by the overlap	< 20%	retained to a large extent	only partially reversed	immediate quenching

From US8404646B2, “Methods for preventing or treating mitochondrial permeability transition” (Cornell Research Foundation, Inc., priority 2003, dated 2013)
